Experimental data as given in US11873287B2, “Piperidine-2,6-dione derivatives and ulcerative colitis treating” (TIANJIN HEMAY PHARMACEUTICAL SCI-TECH CO., LTD, priority 2016, dated 2024).
Entries after “also recorded” stand apart in the source; their conditions may differ.

Assays:
[1] = system: DSS-Induced inflammatory Bowel Disease Models in Mice; test: DSS-induced inflammatory bowel disease model in mice (Biological Example 2, 0.9% DSS); type: in vivo, C57BL/6 mice; conditions: for colon length (Mean ± SD): 0.9% DSS 5 days, end of experiment; for body weights during the whole experiment compared with model control group: 0.9% DSS
Experimental: 66 female C57BL/6 mice were randomly divided into 6 groups: normal control group, model control group, cyclosporine A (25 mg/Kg), 5-ASA (100 mg/Kg), the compound in Example 27 (30 mg/Kg) and the compound in Example 26 (30 mg/Kg). There were 11 mice in each group (see Table 4 below). Besides the normal control group, the remaining groups were induced with 0.9% DSS for 5 days. The day of induction was the first day of the test and then normal drinking water was administered for 4 days. The normal control group was administered with normal drinking water all the time. The model control group, 5-ASA group, the compound in Example 27 group and the compound in Example 26 group were administered with 1% CMC-Na or the corresponding drug every day from the first day of the experiment to the end of the experiment. The cyclosporine A group was administered with cyclosporine A every day from the first day of experiment to the fifth day of the experiment and was administered with the corresponding volume of 1% CMC-Na every day from the sixth day to the end of the experiment due to toxicity. The normal control group was administered with the corresponding volume of 1% CMC-Na every day. The animals were treated and the indexes were tested at the end of the experiment.
The compound in Example 27, the compound in Example 26, 5-ASA or Cyclosporine A: Preparation Method: Suspended with 1% CMC-Na, and prepared when it was needed.
One-Way Anova test was performed with SPSS 17.0. The colony length was analyzed statistically between groups.

[2] = system: DSS-Induced inflammatory Bowel Disease Models in Mice; test: DSS-induced inflammatory bowel disease model in mice (Biological Example 5, 1.3% DSS); type: in vivo, C57BL/6 mice; conditions: 30 mg/Kg i.g. Q.D, 1.3% DSS days 0-5; for inhibition in vivo at 30 mg/kg: Mus musculus, po, read-out: Inhibitory Rate of Colonic Reduction
Experimental: 40 healthy female C57BL/6 mice having weight of 16-19 g were randomly divided into 4 groups in accordance with weight. There were 10 mice in each group (see Table 6 below). The first day of the experiment was recorded as Day 0. The administration regimen and induction regimen were detailed in Table 6. The change in weight of experimental animals was recorded every day. […] Samples of animal colonic tissues were obtained to measure the length. One-way ANOVA analysis of mice weights was performed by SPSS22. Statistical analyses between groups were performed. Mann-Whitney U non-parametric test was performed on the length of colon.
The experimental method used in the present biological example is identical to those in Biological Example 3.
One-way ANOVA analysis of mice body weights and colonic weights per length was performed by SPSS22. Statistical analyses between groups were performed.
Calculation Formula of Inhibitory Rate of Colonic Reduction: (Length of Colon in Administration Group−Length of Colon in Model Group)/(Length of Colon in Blank Group−Length of Colon in Model Group)

ICR mice = test: Acute toxicity experiment of single oral administration in mice; type: in vivo; conditions: 1000 mg/Kg single oral dose
Outline: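 Fasted ICR mice (19–21 g, 3 male and 3 female per group) received a single oral dose of 1000 mg/Kg, given first to one of each sex, then to the remaining four. Acute signs were scored over the first 15 min, then state, deaths and daily body weight over 7 days.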

[3] = system: DSS-Induced Inflammatory Bowel Disease Models in Mice; test: DSS-induced inflammatory bowel disease model in mice (Biological Example 1, 1.6% DSS); type: in vivo, C57BL/6J mice; conditions: for colon length (Mean ± SD): 1.6% DSS 8 days, end of experiment
Experimental: Experimental animals: C57BL/6J mice, weight of 16-18 g
Piperidine-2,6-dione derivatives, 5-ASA or Cyclosporine A: Preparation Method: Suspended with 1% CMC-Na, and prepared when it was needed.
54 C57BL/6 mice were randomly divided into 6 groups: normal control group, model control group, Example 27 groups consisting of dose of 5 mg/Kg group, dose of 10 mg/Kg group and dose of 20 mg/Kg group, and cyclosporine A-25 mg/Kg group. There were 9 mice in each group (see Table 2 below). Besides the normal control group, the remaining groups were induced with 1.6% DSS for 8 days. Normal drinking water was then administered for 3 days. The normal control group was administered with normal drinking water all the time. The model control group and the compound in Example 27 group were administered with 1% CMC-Na or the corresponding drug every day until the end of the experiment. The cyclosporine A group was administered with the corresponding drug every day from the first day of experiment to the eighth day of the experiment and was administered with the corresponding volume of 1% CMC-Na every day from the ninth day to the end of the experiment due to toxicity. At the end of the experiment, the animals were treated and the indexes such as the colon length were tested.
The homogeneity of data variance test was performed by Spss13.0. Where the variance of data was homogeneous (P>0.05), one-way ANOVA LSD test was performed. Where the variance was inhomogeneous (P≤0.05), the data were treated with extraction of a root and homogeneity of data variance test was further performed. Where the variance of data was homogeneous (P>0.05), one-way ANOVA LSD test was performed. Where the variance was still inhomogeneous (P≤0.05), then Dunnett's multiple comparison (parameter method) was performed.

SMILES | Length (cm, Mean ± SD) of colon [2] [cm] | inhibition in vivo at 30 mg/kg [2] [%] | Daily Body Weight of Tested Female Mice (Mean ± SD) (ICR mice; Day 1) [g] | Daily Body Weight of Tested Male Mice (Mean ± SD) (ICR mice; Day 1) [g] | Daily Body Weight of Tested Female Mice (Mean ± SD) (ICR mice; Day 2) [g] | Daily Body Weight of Tested Male Mice (Mean ± SD) (ICR mice; Day 2) [g] | Daily Body Weight of Tested Female Mice (Mean ± SD) (ICR mice; Day 3) [g] | Daily Body Weight of Tested Male Mice (Mean ± SD) (ICR mice; Day 3) [g] | Daily Body Weight of Tested Female Mice (Mean ± SD) (ICR mice; Day 4) [g] | Daily Body Weight of Tested Male Mice (Mean ± SD) (ICR mice; Day 4) [g] | Daily Body Weight of Tested Female Mice (Mean ± SD) (ICR mice; Day 5) [g] | Daily Body Weight of Tested Male Mice (Mean ± SD) (ICR mice; Day 5) [g] | Daily Body Weight of Tested Female Mice (Mean ± SD) (ICR mice; Day 6) [g] | Daily Body Weight of Tested Male Mice (Mean ± SD) (ICR mice; Day 6) [g] | Daily Body Weight of Tested Female Mice (Mean ± SD) (ICR mice; Day 7) [g] | Daily Body Weight of Tested Male Mice (Mean ± SD) (ICR mice; Day 7) [g] | Summary of toxic response of tested animals in 7 Days (ICR mice; Female) | Summary of toxic response of tested animals in 7 Days (ICR mice; Male) | body weights during the whole experiment compared with model control group ([1]; 30 mg/Kg i.g. Q.D) | colon length (Mean ± SD) ([1]; 30 mg/Kg i.g. Q.D) [cm] | also measured
Nc1ccc(O)c(C(=O)O)c1 [Example 5-ASA, 5-aminosalicylic acid, reference compound] | – | – | – | – | – | – | – | – | – | – | – | – | – | – | – | – | – | – | – | – | colon length (Mean ± SD) ([1]; 100 mg/Kg i.g. Q.D): 6.1 ± 0.4 cm
COCCCCN1C(=O)CCC(N2C(=O)c3cccc(N)c3C2=O)C1=O (stereo not shown) [Example 22, 4-amino-2-(1-(4-methoxybutyl)-2,6-dioxopiperidin-3-yl)isoindolin-1,3-dione] | 6.9 ± 0.4 | 100 | 18.5 ± 0.6 | 17.1 ± 0.3 | 21.8 ± 0.3 | 22.9 ± 0.8 | 22.9 ± 0.4 | 23.5 ± 0.9 | 24.0 ± 1.0 | 25.2 ± 0.5 | 25.0 ± 0.4 | 27.2 ± 1.9 | 25.3 ± 0.6 | 27.1 ± 1.8 | 25.6 ± 0.2 | 27.4 ± 1.9 | – | – | – | – | –
COCCN1C(=O)CCC(N2C(=O)c3cccc(O)c3C2=O)C1=O (stereo not shown) [Example 23, 4-hydroxy-2-(1-(2-methoxyethyl)-2,6-dioxopiperidin-3-yl)isoindolin-1,3-dione] | 6.9 ± 0.5 | 100 | 19.1 ± 0.6 | 19.4 ± 0.8 | 22.4 ± 0.4 | 24.6 ± 1.2 | 23.0 ± 0.1 | 24.5 ± 0.6 | 23.0 ± 0.1 | 24.5 ± 0.6 | 24.6 ± 0.4 | 25.4 ± 1.2 | 24.8 ± 0.7 | 28.1 ± 0.8 | 24.6 ± 0.4 | 29.0 ± 0.8 | Abnormality was not observed in 7 days of the test | Abnormality was not observed in 7 days of the test | – | – | –
COCCN1C(=O)CCC(N2C(=O)c3cccc(C)c3C2=O)C1=O (stereo not shown) [Example 24, 4-methyl-2-(1-(2-methoxyethyl)-2,6-dioxopiperidin-3-yl)-isoindolin-1,3-dione] | 6.7 ± 0.6 | 81.8 | 18.4 ± 0.7 | 17.7 ± 0.2 | 22.4 ± 1.0 | 22.3 ± 0.7 | 23.4 ± 1.0 | 24.5 ± 1.0 | 23.6 ± 0.9 | 25.2 ± 1.0 | 24.3 ± 0.6 | 27.2 ± 1.3 | 24.7 ± 0.6 | 28.1 ± 2.0 | 24.8 ± 1.5 | 28.9 ± 1.9 | – | – | – | – | –
COCCCN1C(=O)CCC(N2C(=O)c3cccc(N)c3C2=O)C1=O (stereo not shown) [Example 26, 4-amino-2-(1-(3-methoxypropyl)-2,6-dioxopiperidin-3-yl)isoindolin-1,3-dione] | – | – | 18.0 ± 0.7 | 18.7 ± 0.8 | 21.9 ± 0.3 | 23.4 ± 0.5 | 22.1 ± 0.5 | 25.0 ± 0.6 | 22.4 ± 0.2 | 26.6 ± 1.4 | 22.7 ± 0.3 | 27.3 ± 1.3 | 22.6 ± 0.3 | 28.3 ± 1.3 | 22.4 ± 0.2 | 28.8 ± 1.4 | Abnormality was not observed in 7 days of the test | Abnormality was not observed in 7 days of the test | higher than that of the model control group | 6.3 ± 0.5 | –
COCCN1C(=O)CCC(N2C(=O)c3cccc(N)c3C2=O)C1=O (stereo not shown) [Example 27, 4-amino-2-(1-(2-methoxyethyl)-2,6-dioxopiperidin-3-yl)isoindolin-1,3-dione] | 6.7 ± 0.4 | 81.8 | – | – | – | – | – | – | – | – | – | – | – | – | – | – | – | – | higher than that of the model control group | 6.3 ± 0.5 | Disease Activity Index (DAI) ([3]; 5 mg/Kg i.g. Q.D, 1.6% DSS): better than the DAI of model control group; relief of reduction in colon length in the model ([3]; 5 mg/Kg i.g. Q.D, 1.6% DSS): certain relief effects; colon length (Mean ± SD) ([3]; 5 mg/Kg i.g. Q.D): 6.1 ± 0.4 cm; Disease Activity Index (DAI) ([3]; 10 mg/Kg i.g. Q.D, 1.6% DSS): better than the DAI of model control group; colon length (Mean ± SD) ([3]; 10 mg/Kg i.g. Q.D): 6.2 ± 0.4 cm; Disease Activity Index (DAI) ([3]; 20 mg/Kg i.g. Q.D, 1.6% DSS): equivalent to the DAI of the normal control group and cyclosporine A group; also recorded: better than the DAI of model control group; body weight of the animals during the experiment ([3]; 20 mg/Kg i.g. Q.D, 1.6% DSS): continuous increase trend; relief of reduction in colon length in the model ([3]; 20 mg/Kg i.g. Q.D, 1.6% DSS): significant relief effects; colon length (Mean ± SD) ([3]; 20 mg/Kg i.g. Q.D): 6.4±0.4 cm
